Reference: publication PMC3678512, “Synthesis and physicochemical characterization of novel phenotypic probes targeting the nuclear factor-kappa B signaling pathway” (Beilstein Journal of Organic Chemistry, 2013)
Values after ≈ are worked out from the molar mass of the structure shown. Where two headings read alike, the source gives them in different places.

Experiments:
[1] = test system: 353 kinases; assay: KINOMEscan (DiscoveRx) selectivity profiling, panel; type: binding; settings: 10 uM; out of the 353 kinases surveyed
Text: (§1) This probe was discovered after two separate screening campaigns totaling ~110,000 compounds.

[2] = biological target: T1, JAK2 (Homo sapiens, UniProt O60674); assay: KINOMEscan (DiscoveRx) selectivity profiling, JAK2; type: binding
T1 construct: purchased DiscoveRx
Text: as §1

[3] = test system: NF-κB activation in 697 pre-B cell line; assay: NF-κB reporter gene assay in 697 pre-B cells (PMA/ionomycin induced); type: cell-based; settings: read-out: Potency in 697 pre-B cell line (NF-κB reporter)
Text: (§2) Phenotypic screening for noncanonical NF-κB pathway selective inhibitors of IL-8 production in HEK 293, HEK 293T (ML029) and 697 pre-B cells (ML236 and ML237): Most pathways for NF-κB activation converge on the IκB kinases (IKKs), and more than nine signaling routes have been identified. While IKKs therefore represent attractive targets for drug discovery programs, the selectivity envisioned for an acceptable therapeutic index has remained elusive as inhibitors of IKKs indiscriminately suppress all known NF-κB activation pathways. Within this project, new probes were sought that were not active via the currently known receptor-driven pathways and IκB kinases, but attenuated NF-κB transcriptional activity as measured by a luciferase-based reporter gene assay with validation using a panel of known receptor and kinase-based counter screens.
(§3) Therefore, an HTS campaign was initiated to identify compounds active in these specific cell subtypes by using the established HTS NF-κB reporter gene assay format. This included screening of a larger (~330,600 compound) MLSMR collection to ensure identification of additional chemical scaffolds not previously available. From this campaign two new cell-active NF-κB inhibitors were derived that were both selective against the NF-κB pathway induced by known PKC activators (phorbol myristic acetate (PMA)/ionomycin) and were selective toward the 697 pre-B cell line. It is interesting to note that no compounds meeting probe selectivity criteria were identified within the T cell (HEK 293T) specific assay. The first oxadiazole-based probe ML236 (8) was potent (0.035 μM) in the 697 pre-B cell line and >400-fold selective over both the NF-κB activation in HEK 293T cells and against TNFα-mediated NF-κB activation. In comparison, the second oxazole-based probe 12 is also potent (0.2 μM) in the 697 pre-B cell line and >400-fold selective over both the NF-κB activation in HEK 293T cells and against TNFα mediated NF-κB activation as measured in our reporter gene assay format.

[4] = test system: NF-κB transcriptional activity in HEK 293 cells; design: method as in PMID 20481485; settings: NF-κB reporter, read-out: IC50 in the HEK 293 cell assay; cited from earlier work
[5] = PAMPA (parallel artificial membrane permeability assay); type: in vitro ADME; settings: for PAMPA Pe, donor pH 5.0: donor pH 5.0, acceptor pH 7.4, compound at 50 μM; for PAMPA Pe, donor pH 6.2: donor pH 6.2, acceptor pH 7.4, compound at 50 μM; for PAMPA Pe, donor pH 7.4: donor pH 7.4, acceptor pH 7.4, compound at 50 μM
Protocol: (§4) The probes were evaluated using known in vitro ADME/T assays to understand their overall pharmacological properties (Table 2). […] The PAMPA (parallel artificial membrane permeability assay) assay is used as an in vitro model of passive, transcellular permeability. An artificial membrane immobilized on a filter is placed between a donor and acceptor compartment. […] It is not yet known whether it represents a species specific CPY450 inhibitor.

[6] = Hepatic toxicity in immortalized human hepatocytes; type: cell-based; settings: Fa2N-4 immortalized human hepatocytes, read-out: Hepatic toxicity LC50
Protocol: as §4

[7] = test system: Raf; assay: KINOMEscan (DiscoveRx) selectivity profiling, Raf; type: binding; settings: 10 uM
Text: as §1

[8] = test system: IKKβ; design: method as in PMID 20481485, PMID 20153655; settings: 4 at concentrations up to 8 μM; cited from earlier work
[9] = Aqueous solubility; type: physicochemical; settings: for Solubility (in words): across pH 5 to 7.4
Protocol: as §4

[10] = Hepatic microsome stability, human; type: in vitro ADME; settings: for Hepatic microsome stability, human (% remaining): compound at 1 μM, 60 min
Protocol: as §4

[11] = Hepatic microsome stability, mouse; type: in vitro ADME; settings: compound at 1 μM, 60 min
Protocol: as §4

[12] = biological target: T2, TLK1 (Homo sapiens, UniProt Q9UKI8); assay: KINOMEscan (DiscoveRx) selectivity profiling, TLK1; type: binding
T2 construct: purchased DiscoveRx
T2 sequence (Q9UKI8 1-766): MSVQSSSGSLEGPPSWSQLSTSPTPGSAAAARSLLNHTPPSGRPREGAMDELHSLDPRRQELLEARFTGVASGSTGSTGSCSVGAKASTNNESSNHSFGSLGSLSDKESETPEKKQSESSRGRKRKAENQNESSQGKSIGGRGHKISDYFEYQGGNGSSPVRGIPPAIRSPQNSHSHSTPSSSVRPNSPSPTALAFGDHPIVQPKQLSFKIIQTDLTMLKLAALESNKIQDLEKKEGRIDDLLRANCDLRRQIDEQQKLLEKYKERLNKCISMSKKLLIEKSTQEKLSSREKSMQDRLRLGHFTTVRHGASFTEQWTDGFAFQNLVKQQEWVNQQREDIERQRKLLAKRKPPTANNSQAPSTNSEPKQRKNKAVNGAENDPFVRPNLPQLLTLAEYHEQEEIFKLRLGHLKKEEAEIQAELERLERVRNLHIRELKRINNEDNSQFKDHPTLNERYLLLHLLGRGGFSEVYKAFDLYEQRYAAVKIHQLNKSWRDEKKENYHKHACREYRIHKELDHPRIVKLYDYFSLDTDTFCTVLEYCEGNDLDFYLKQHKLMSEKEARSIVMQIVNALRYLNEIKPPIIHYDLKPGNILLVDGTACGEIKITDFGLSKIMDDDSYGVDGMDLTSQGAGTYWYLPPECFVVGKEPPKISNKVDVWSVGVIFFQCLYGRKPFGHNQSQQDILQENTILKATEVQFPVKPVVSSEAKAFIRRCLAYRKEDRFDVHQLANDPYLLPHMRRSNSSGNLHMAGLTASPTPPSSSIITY
Text: as §1

[13] = test system: NF-κB activation in HEK 293T cells; assay: NF-κB reporter gene assay in HEK 293T cells; type: cell-based, human; settings: for Selectivity over NF-κB activation in HEK 293T cells: relative to 697 pre-B cell line potency
Text: as §2, §3

[14] = test system: PKCθ; design: method as in PMID 20481485, PMID 20153655; settings: 4 at concentrations up to 8 μM; cited from earlier work
[15] = test system: PKCβ; design: method as in PMID 20481485, PMID 20153655; settings: 4 at concentrations up to 8 μM; cited from earlier work
[16] = test system: TNFα-mediated NF-κB activation; assay: TNFα-mediated NF-κB activation reporter gene assay; type: cell-based; settings: relative to 697 pre-B cell line potency
Text: as §3

[17] = test system: NOD2-dependent IL-8 secretion in MCF-7 cells; assay: NOD2-dependent IL-8 secretion in MCF-7 cells; type: cell-based
[18] = test system: TNF-α-dependent IL-8 secretion in MCF-7 cells; assay: TNF-α-dependent IL-8 secretion in MCF-7 cells; type: cell-based
[19] = test system: NOD1 (γ-tri-DAP) dependent IL-8 secretion; assay: NOD1 (γ-tri-DAP) dependent IL-8 secretion; type: cell-based
[20] = aqueous medium, pH 6.2, aqueous buffer, read-out: Aqueous solubility pH 6.2
[21] = pH 5.0, read-out: Aqueous solubility pH 5.0
[22] = pH 7.4, read-out: Aqueous solubility pH 7.4
[23] = aqueous medium, aqueous buffer, pH 5.0, read-out: Aqueous solubility pH 5.0
[24] = aqueous medium, pH 7.4, aqueous buffer, read-out: Aqueous solubility pH 7.4

T1 sequence (O60674 whole entry): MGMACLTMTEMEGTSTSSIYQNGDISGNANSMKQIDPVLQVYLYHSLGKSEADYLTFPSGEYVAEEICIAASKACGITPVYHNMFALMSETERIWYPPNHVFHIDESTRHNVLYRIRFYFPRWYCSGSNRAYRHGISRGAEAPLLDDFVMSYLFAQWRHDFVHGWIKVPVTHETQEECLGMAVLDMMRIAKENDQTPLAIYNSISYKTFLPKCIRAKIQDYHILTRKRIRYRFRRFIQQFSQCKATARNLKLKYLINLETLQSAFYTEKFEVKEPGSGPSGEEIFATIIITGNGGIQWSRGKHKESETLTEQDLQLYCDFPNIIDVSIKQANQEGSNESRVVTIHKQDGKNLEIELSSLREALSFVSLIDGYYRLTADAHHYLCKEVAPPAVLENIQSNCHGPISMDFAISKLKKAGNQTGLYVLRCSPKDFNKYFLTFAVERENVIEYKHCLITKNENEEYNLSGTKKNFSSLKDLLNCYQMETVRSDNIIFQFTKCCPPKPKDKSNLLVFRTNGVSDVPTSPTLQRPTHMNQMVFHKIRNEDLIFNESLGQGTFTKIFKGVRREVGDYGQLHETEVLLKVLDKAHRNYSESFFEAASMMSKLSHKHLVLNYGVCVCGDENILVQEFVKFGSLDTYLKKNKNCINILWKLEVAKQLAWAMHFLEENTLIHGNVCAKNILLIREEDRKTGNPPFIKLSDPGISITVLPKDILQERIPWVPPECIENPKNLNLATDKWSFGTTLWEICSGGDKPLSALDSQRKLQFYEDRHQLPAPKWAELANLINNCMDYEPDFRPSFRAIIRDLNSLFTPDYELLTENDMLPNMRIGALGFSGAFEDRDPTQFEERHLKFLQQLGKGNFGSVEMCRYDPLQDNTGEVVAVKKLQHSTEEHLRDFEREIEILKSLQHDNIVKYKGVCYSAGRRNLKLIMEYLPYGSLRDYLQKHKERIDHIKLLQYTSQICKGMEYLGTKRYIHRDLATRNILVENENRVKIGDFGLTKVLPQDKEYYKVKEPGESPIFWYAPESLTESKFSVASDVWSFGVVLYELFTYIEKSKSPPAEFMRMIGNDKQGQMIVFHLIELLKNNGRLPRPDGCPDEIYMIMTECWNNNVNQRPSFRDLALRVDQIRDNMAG

Structure (SMILES)	IC50 [3] [µM]	PAMPA Pe, donor pH 5.0 [5]	PAMPA Pe, donor pH 6.2 [5]	PAMPA Pe, donor pH 7.4 [5]	CC50 [6] [µM]	Suppression of IKKβ [8]	Solubility (in words) [9]	solubility [9, 20] [µM]	solubility [9, 21] [µM]	solubility [9, 22] [µM]	Hepatic microsome stability, human (% remaining) [10] [% remaining]	Hepatic microsome stability, mouse (% remaining) [11] [% remaining]	Suppression of PKCθ [14]	Selectivity against TNFα-mediated NF-κB activation [16] [fold]	solubility [9, 23] [µM]	solubility [9, 24] [µM]	Selectivity over NF-κB activation in HEK 293T cells [13] [fold]	further results
Cc1cc2nc(NCCCO)n(CC(=O)c3cc(C(C)(C)C)c(O)c(C(C)(C)C)c3)c2cc1C [Probe 4]	> 30	299 10^−6 cm/s	710 10^−6 cm/s	441 10^−6 cm/s	> 50	failed to suppress	good solubility	1.1 (≈ 0.512 µg/mL)	90 (≈ 41.9 µg/mL)	1.5 (≈ 0.698 µg/mL)	26	0.5	failed to suppress					Number of kinases inhibited >50% [1]: 3; inhibition at 10 µM [2]: 53%; IC50 [4]: 0.07 µM; Raf inhibition [7]: 57%; inhibition at 10 µM [12]: 70%; IC50 ([13]; Homo sapiens, HEK 293T cells, read-out: Activity in HEK 293T cell line (NF-κB reporter)): > 30 µM; Suppression of PKCβ [15]: failed to suppress
CNC(=O)CCc1nc(-c2ccc(C(C)(C)C)cc2)no1 [Probe 8]	0.035	751 10^−6 cm/s	755 10^−6 cm/s	746 10^−6 cm/s	> 50		good solubility	101 (≈ 29 µg/mL)			100	4.9		> 400	92 (≈ 26.4 µg/mL)	103 (≈ 29.6 µg/mL)	> 400	Metabolic stability in human hepatic microsomes (in words) ([10]; one hour of exposure): no apparent instability
CCOc1ccc(-c2nc(CSCC(=O)NC3CC3)c(C)o2)cc1 [Probe 12]	0.2	513 10^−6 cm/s	541 10^−6 cm/s	59 10^−6 cm/s	> 50		good solubility	133 (≈ 46.1 µg/mL)			22.7	0		> 400	112 (≈ 38.8 µg/mL)	160 (≈ 55.4 µg/mL)	> 400	
Cc1ccc(S(=O)(=O)n2c(N)nc3ccccc32)cc1 [Probe 13]		491 10^−6 cm/s	562 10^−6 cm/s	382 10^−6 cm/s	> 50		moderate solubility		7.0 (≈ 2.01 µg/mL)	7.0 (≈ 2.01 µg/mL)	41.8	0.8						Inhibition of NOD2-dependent IL-8 secretion [17]: neither inhibited; Inhibition of TNF-α-dependent IL-8 secretion [18]: neither inhibited; Inhibition of NOD1 (γ-tri-DAP) dependent IL-8 secretion [19]: selectively inhibited IL-8 secretion; solubility ([9]; pH 6.2, read-out: Aqueous solubility pH 6.2): 5.9 µM (≈ 1.7 µg/mL)
CN[C@@H]1C[C@H]2O[C@@](C)([C@@H]1OC)n1c3ccccc3c3c4c(c5c6ccccc6n2c5c31)C(=O)NC4 [staurosporine, reference compound]						potent inhibition							potent inhibition					
